Measured values: US20150086618A1, “PHOSPHOLIPID MICELLAR AND LIPOSOMAL COMPOSITIONS AND USES THEREOF” (THE BOARD OF TRUSTEES OF THE UNIVERSITY OF ILLINOIS, priority 2008, published 2015)
Entries after “also recorded” stand apart in the source; their conditions may differ.

Legend:
[1] = α-helicity of LP17 and control peptide in saline and SSM; assay type: physicochemical; details: peptide 20 μM, SSM 5 mM
Description: The α-helicity of LP17 (20 μM) in saline and in SSM (5 mM) was tested. A control peptide ([…] (SEQ ID NO:2)) was also tested in saline and in SSM at the same concentrations.

TREM-1 = assay: Mouse model of ALI induced by aerosolized LPS, LP17 (Example 13); assay type: in vivo, Wild-type mice; details: 3 nmol s.c.; free peptide 48 and 24 h before LPS, nanomicellar 48 h before LPS
Description: The efficacy of nanomicellar LP17 was tested in a mouse model of ALI induced by aerosolized LPS. Wild-type mice were treated with LP17 or control peptide and with LP17 or control peptide self-associated with nanomicelles (each, 3 nmol; a dose similar to that used in previous experiments). Free peptides were administered subcutaneously 48 and 24 h before administration of LPS. Peptides self-associated with nanomicelles were administered to the mice only 48 h before LPS nebulization. Mice were exposed to nebulized LPS in a dose of 1 mg/ml for 40 min as previously described (Sadikot et al., Am. J. Respir. Crit. Care Med. 164: 873-8, 2001.) Control mice were treated with nebulized endotoxin-free PBS. TREM-1 was induced in lungs of mice at 4 hours after treatment with LPS. After 4 h, a bronchoalveolar lavage was carried out to determine total cell count and neutrophil count. Lungs, liver, and spleen were harvested from the mice and frozen for RNA and protein extraction. Real-time RT-PCR was carried out to analyze fold induction in TREM-1 gene expression.

ALI mice = assay: LPS-nebulization acute lung injury model, treatment after start of LPS (Example 7); assay type: in vivo; details: cardiac puncture at conclusion of treatment; LPS-exposed mice
Description: Mice are induced with acute lung injury (ALI) by treatment with lipopolysaccharide (LPS) nebulization (as described by Sadikot et al. […]: 873-8, 2001; Koay et al., Am. J. Respir. Cell Mol. Biol. 26: 572-8, 2002). […]
A dose of drug was administered subcutaneously (s.c.) 30 min after initialization of aerosolized LPS nebulization. […] All mice were sacrificed 4 hr after completion of nebulization. For each animal, bronchoalveolar lavage was carried out and the lungs were removed for analysis. Data from untreated (control) mice (no LPS nebulization or drug treatment) was also included in the data analysis for comparison.

[2] = Fluorescence anisotropy of GLP-1(7-36) in SSM / SSMM or saline; assay type: physicochemical; details: GLP-1(7-36) 125 μM in saline; n=3
Description: Fluorescence anisotropy. […] The data indicated an increased viscosity of the peptide surrounding in the presence of SSM in contrast to saline.
This hypothesis was studied via determination of peptide fluorimetric anisotropy in the presence and absence of nanomicelles. This technique measures rigidity (or rotational freedom) of fluorophores by intensity of emitted fluorescence polarized parallel and perpendicular to that of excitation beam. A molecule that is restricted in its rotational motion due to viscous environment will emit fluorescence that is predominantly parallel to its excitation light source, giving a high anisotropy value.

[3] = Hydrophilicity/hydrophobicity balance of peptide; assay type: physicochemical
[4] = Blood glucose in mice with LPS-induced ALI (Example 17); assay type: in vivo; details: LPS-exposed mice, GLP-1 1250 μg/kg, cardiac puncture at conclusion
Description: Blood was obtained by cardiac puncture at the conclusion of the treatment. Median glucose concentration was 109, 183, 157, and 125 mg/dl, respectively.

[5] = Dynamic light scattering (NICOMP) particle size of PxB, PxB with DSPE-PEG2000 and SSM in saline; assay type: physicochemical; details: for particle size distribution with scale 10-10,000 nm: 6.9 mM PxB in saline, 2 hours, 25° C.
Description: In order to determine the optimum peptide to lipid ratio of PxB to SSM, fluorescence spectroscopy and NICOMP analysis were carried out on PxB at varying concentrations in sterile normal saline (SNS) and with DSPE-PEG2000 at a fixed concentration. In these experiments, PxB Sulphate (MW […], Research Products International Corp, Cat: P40160-1.0, Lot#003746), DSPE-PEG2000 (MW 2811 g/mol, Lipoid, Cat#PE18:0/18:0/PEG 2000, Lot#899346-1/10), Methanol, and HEPES Buffer (pH˜7.4) were used. Controls: SSM (1 mM) and Samples: PxB-SSM (1:1000) were prepared.
Specifically, PxB (at various concentrations ranging from 0.5 mM to 6.9 mM) in sterile normal saline (SNS) was incubated with DSPE-PEG2000 (1 mM). Stock solutions of PxB and DSPE-PEG2000 were prepared and equilibrated for 2 hours. After the 2 hour equilibration, stock solutions were characterized by dynamic light scattering (DLS) using the NICOMP 380 Submicron Particle Sizer (Particle Sizing Systems, Inc. Santa Barbara, Calif.). […] A SSM sample (1 mM) (n=1) was prepared in saline alone for comparison with the PxB-SSM samples. Concurrent samples of PxB (0.5, 1.0, 2.3 and 6.9 mM) were prepared in saline alone or with SSM (DSPE-PEG2000, 1 mM) (n=8). The samples were measured for 30 minutes using DLS at approximately 2, 24, and 48 hours after time 0.

[6] = DSPE-PEG2000:PxB saturation ratio by fluorescence spectroscopy; assay type: physicochemical; details: at saturation point
Description: To determine the saturation point for DSPE-PEG2000 with PxB, fluorescence spectroscopy was carried out. PxB concentration was fixed at 50 μM and the concentration of DSPE-PEG2000 was varied to allow DSPE-PEG2000:PxB ratios of 1:1, 3:1, 6:1, 10:1, 20:1, 60:1, and 100:1. A stock solution of DSPE-PEG2000 was prepared and allowed to equilibrate at 25° C. in the dark under argon gas for two hours. A stock solution of PxB (100 μM) was prepared in HEPES Buffer. Samples were prepared by pipetting the appropriate amount of buffer and stock solutions into each vial. Fluorescence measurements were made after allowing each sample to equilibrate for 1 hour in the dark at 25° C. 400 μl of each sample was measured three times by the spectrofluorometer. The maximum intensity of each sample was recorded from the spectrofluorometer and analyzed using Microsoft Excel and Sigma Plot.
To fit a curve to the graph of the data the equation was used because its shape best fit the data, where
When the lipid to peptide ratio approaches infinity, a plateau is reached in terms of the fluorescence intensity and the equation becomes where yp is the height of the plateau. […]
Using this value as y, the lipid to peptide saturation point can be calculated by substituting the values into the equation and solving for x, […]

**Q.** Which “percent α-helicity in SSM compared to saline” value [1] does the source give for “LQVTDSGLYRCVIYHPP (SEQ ID NO: 1) (listed as Mus musculus) [LP17]” here?
**A.** significantly greater

**Q.** And the “expression of TREM-1 mRNA” value (TREM-1)?
**A.** attenuated

**Q.** Which “Median blood glucose concentration” value (ALI mice) does the source give for glucagon-like peptide I (7-36) [GLP-1] here?
**A.** 157 mg/dL

**Q.** What about the fluorescence anisotropy [2] of the same substance?
**A.** 0.045±0.012

**Q.** And the hydrophilicity/hydrophobicity balance [3]?
**A.** ~0.987

**Q.** And the Median glucose concentration [4]?
**A.** 157 mg/dL

**Q.** Which “critical micelle concentration (CMC) of PxB” value [5] does the source give for polymyxin B [PxB] here?
**A.** 1.0 to 2.3 mM

**Q.** What about the “particle size (diameter), INT-WT NICOMP” value ([5]; 0.5 mM PxB, saline alone or with 1.0 mM DSPE-PEG2000, 24 hours) of the same substance?
**A.** approximately 520 nm

**Q.** And the “particle size (diameter)” value ([5]; 1.0 mM PxB, 24 hours)?
**A.** 520 nm

**Q.** What about the “particle size (diameter), INT-WT NICOMP” value ([5]; 1.0 mM PxB, saline alone or with 1.0 mM DSPE-PEG2000, 2 hours) of the same substance?
**A.** 240 nm

**Q.** What about the “large aggregates observed or not” value ([5]; 2.3 mM PxB) of the same substance?
**A.** large aggregates were observed

**Q.** What about the “particle size (diameter), INT-WT NICOMP” value ([5]; 2.3 mM PxB, saline alone or with 1 mM DSPE-PEG2000, 2 hours) of the same substance?
**A.** approximately 850 nm

**Q.** And the “particle size distribution with scale 10-10,000 nm” value [5]?
**A.** did not show peaks

**Q.** And the “particle size distribution with scale 10-10,000 nm” value ([5]; listed as PxB sulfate)?
**A.** no large aggregates

**Q.** And the “average particle size (diameter)” value ([5]; 6.9 mM PxB, 24 and 48 hour time points)?
**A.** 517 nm

**Q.** And the “particle size (diameter), VOL-WT NICOMP” value ([5]; 6.9 mM PxB, 48 hours)?
**A.** 4 nm

**Q.** And the “particle size (diameter), INT-WT NICOMP” value ([5]; 6.9 mM PxB, saline alone or with 1 mM DSPE-PEG2000, 2 hours, listed as PxB sulfate)?
**A.** 640 nm

**Q.** And the “particle size (diameter), INT-WT NICOMP” value ([5]; 6.9 mM PxB, saline alone or with 1 mM DSPE-PEG2000, 48 hours)?
**A.** 4 nm

**Q.** And the “particle size (diameter), INT-WT NICOMP” value ([5]; 6.9 mM PxB, saline alone or with 1 mM DSPE-PEG2000, 48 hours, listed as PxB sulfate)?
**A.** 517 nm

**Q.** And the “aggregation of PxB” value ([5]; all concentrations tested (0.5-6.9 mM), saline, 2-48 hours)?
**A.** showed aggregation of the peptide; also recorded: formed aggregates

**Q.** And the PxB aggregate formation ([5]; range of concentrations tested, 10 μM to 23 mM)?
**A.** aggregates formed

**Q.** And the “molecules of PxB per micelle” value [6]?
**A.** 3.6
